Tested on: Human Lung Cancer Cell Line A-549
Assay: Growth inhibition (% control growth, LC50, TGI, GI50) A-549
Assay type: cell-based
Settings: Homo sapiens, A549, read-out: LC50, A-549; Molar drug concentrations calculated from graph
Method: The therapeutic effect of SA1 (peak 5) and SA2 (peak 4) is evaluated against human lung cancer cell line A-549 by calculating the percentage growth inhibition, drug concentration of test compound needed to inhibit cell growth by 50% (GI50) values.
The therapeutic effect of SACC is evaluated against human lung cancer cell line A-549 by calculating the percentage growth inhibition, drug concentration of test compound needed to inhibit cell growth by 50% (GI50) values.

Compound: COc1cccc2c1C(=O)c1c(O)c3c(c(O)c1C2=O)C[C@@](O)(C(=O)CO)C[C@@H]3O[C@H]1C[C@H](N)[C@H](O)[C@H](C)O1 [ADR, Adriamycin]
- LC50: 143 µM

From patent publication US20260224524A1, “A PHARMACEUTICAL COMPOSITION TARGETING MUTANT P53 AND HER2” (DR DOZO LABORATORIES, priority 2023, published 2026)
